The source of these data is patent US20250099622A1, “COMPOSITIONS AND METHODS FOR EXPRESSING THERAPEUTICS” (priority 2022, published 2025).

One assay relates to HEK293 cells. Briefly: CNP-Fc ELISA of supernatant of AAV-transduced HEK293 cells. The assay is classed as cell-based, Human. How it is done:
C-type natriuretic peptide (CNP) has two isoforms, CNP-22 and CNP-53. Example 2 illustrates that CNP-36 fused with Fe increased the half-life of the CNP and also facilitated in purification and ELISA detection when compared to native (unfused) CNP. Transduction and CNP-Fc expression experiments were performed with three AAV vectors (AMI061, AMI087 and AMI0488). FIG. 1A is the pictorial depiction of the three vectors. FIGS. 1B-F illustrate additional vectors that can encode the CNP or the CNP fusion protein. Enzyme-linked immunoassay (ELISA) was developed for quantifying CNP-Fc fusion proteins in cell culture supernatants. The ELISA assay was used to quantify CNP-Fc expressed in HEK293 cells, human chondrocytes (HCH) cells, and human skeletal muscle cells (hSkMC) upon transduction with one of the three AAV constructs described herein.
Buffer and substrate. Coating buffer: 3.7 g sodium bicarbonate, 0.64 g sodium carbonate in 1 L of Milli Q water, pH 9.6. Stored at RT; Blocking buffer: Commercial Casein blocking buffer in PBS+ added 0.1% Tween20. Stored at 4° C.; Standard diluent: same as blocking buffer; Wash buffer: 1×PBS with 0.1% tween 20 (30 days expiry from date of manufacture); Coating Antibody (Ab): Human CNP Antibody (monoclonal), coating concentration was 2 μg/mL; Detection Ab: Goat pAb anti-human Fc. Diluted up to 1:20,000 final dilution in well. Stored at 4° C.; HRP: Streptavidin-HRP stock of 1 mg/mL, diluted up to 1:10,000. Stored at 4° C.; Substrate: TMB. Stored at 4° C.; and Stop solution: 2 N HCl. Stored at ambient temperature.
• 1. Coat 96-well plate with 2 μg/mL anti-CNP antibody final concentration per well in the coating buffer with a 50 μL volume and cover the plate with sealing cover. Put the plate at 4° C. overnight. • 2. Next day, remove the plate, wash thrice with wash buffer and tap the plate on the paper towel to remove excess solution. • 3. Add 300 μL of blocking buffer to each well using multichannel pipette. […] Add 50 μL stop solution and read plate at 450 nm with 600 as reference within 15 min. […]
For orientation: In an ELISA, binding on a coated surface is turned into a signal by an enzyme label.

Assay [1] relates to retinal ganglion cells (RGC). Briefly: NMDA excitotoxicity mouse model: RGC count by retinal Flatmount. The assay is classed as in vivo, C57BL/6). The settings on record: AAV 4E+8 vg/eye IVT 28 days prior to NMDA.
Description: This study was for evaluating the effect of adeno-associated viral (AAV) vectors on retinal ganglion cell protection following damage caused via N-methyl-D-aspartate (NMDA) administration in the mouse. […] Groups 7 and 8 were added to test a higher concentration of MK-801. […] This study was conducted in wild type mice (Mus musculus, C57BL/6).
300 μL of the 5 mM NMDA stock was combined with 300 μL of sterile PBS and 1 μL as injected on Day 0 for a final concentration of 2.5 mM NMDA.
300 μL of the 5 mM NMDA stock as combined with 300 μL of sterile-filtered MK-801 and 1 μL was injected on Day 0 for a final concentration of 2.5 mM NMDA/100 μM MK-801.
300 μL of the 5 mM NMDA stock was combined with 300 μL of sterile PBS and 1 μL was injected on Day 0 for a final concentration of 2.5 mM NMDA.
On Day −28 or Day 0 based on the experimental design, mice were given buprenorphine 0.01-0.05 mg/kg subcutaneously (SQ). Animals were then tranquilized for the intravitreal injections with ketamine/xylazine or inhaled isoflurane and one drop of 0.5% proparacaine HCl was applied to both eyes. The conjunctiva was gently grasped with Dumont #4 forceps, and the injection was made using a 33 G needle and a Hamilton syringe. After dispensing the syringe contents, the syringe needle was slowly withdrawn. Following the injection procedure, 1 drop of Ofloxacin ophthalmic solution was applied topically to the ocular surface with eye lube.
Eyes were enucleated and immediately fixed in 4% paraformaldehyde in phosphate-buffered saline (PBS) and stored overnight at 4° C. The following day, the eyes were transferred to cold immunocytochemistry (ICC) buffer (PBS containing 0.5% BSA and 0.2% Tween 20) until processing. Using a dissecting microscope, the eye was carefully trimmed of extraneous tissue at the limbus and, using fine curved scissors, the anterior chamber was removed. Retinas in the eye cup were rinsed with cold ICC buffer. Eye cups were placed in cold ICC buffer containing 1/100 rat anti-CNP36 (Groups 3-6 only; resuspended at 0.5 mg/mL in PBS) for 3 hours at 4° C. Eye cups were then washed extensively and stained with 1/200 donkey anti-rat Cy3 and 1/1,000 DAPI for 2-3 hours at 4° C. Groups 1 and 2 were stained with 1/500 TUJ-1 and 1/1000 DAPI, while Groups 7 and 8 were incubated with 1/1,000 DAPI alone. Eye cups were washed extensively but gently with cold ICC buffer. Using fine curved scissors and an eyelash knife, the retina was detached from the optic nerve head and removed from the RPE/choroid. Radial cuts were then made toward the center and retinas were flat mounted, covered, and sealed. 2D fluorescent microscopy images were acquired using an Olympus Bx63 upright fluorescent microscope. […] Images at 20× were acquired in 4 quadrants and a central 248.1×325.7 μm region was analyzed for RGC counts using Olympus cellSens and ImageJ software.
Groups 1 and 2 were stained with DAPI and TUJ-1 and images were captured at 20× (FIG. 10A). RGCs were counted in four quadrants, and cells/mm2 were averaged across each group.
Groups 3-8 were stained for DAPI and four images were captured for each retina at 20× approximately 600 μm from the optic nerve head. RGCs were counted in a central 248.1×325.7 μm region and cells/mm2 were averaged over each group (FIG. 10C).
The statistical analyses were performed on the Group 3-8 RGC data (one-way ANOVA followed by multiple comparisons using the Dunnett statistical hypothesis comparison).

With “AMI088: purified fusion protein Fc1-(G4S)4-CNP36 (IgG1 Fc), SEQ ID NO: 133”, the “Concentration” value with HEK293 cells (CNP-Fc in HEK293 supernatant 5 days after transduction with 100,000 MOI of AAV2 N54 vector) came out at 75 µg/mL. In the assay with HEK293 cells (HEK293 supernatant, 100,000 MOI, 5 days), the “CNP-Fc expression compared to other CNP constructs” value is recorded as “highest expression”. The “RGC counts compared to sham AAV + NMDA group” value in assay [1] is given as “higher RGC counts”.
